Here are results for one compound from paper PMC11084212, “Nontraditional Roles of Magnesium Ions in Modulating Sav2152: Insight from a Haloacid Dehalogenase-like Superfamily Phosphatase from Staphylococcus aureus” (International Journal of Molecular Sciences, 2024).

The assay concerns the target T1, Sav2152 (Staphylococcus aureus, UniProt A0A0H3JWK0).
T1 construct: monomer; C-terminus (res. 234-285) disordered in crystal
The assay can be described thus: EnzChek phosphatase assay, DiFMU release. The class given is biochemical. The conditions noted are these: 100 uM DiFMUP, 10 uM protein, 1 mM Mg2+, 100 mM NaCl, 25 mM Tris-HCl pH 7.0.

T1 sequence (A0A0H3JWK0 entry or part of it): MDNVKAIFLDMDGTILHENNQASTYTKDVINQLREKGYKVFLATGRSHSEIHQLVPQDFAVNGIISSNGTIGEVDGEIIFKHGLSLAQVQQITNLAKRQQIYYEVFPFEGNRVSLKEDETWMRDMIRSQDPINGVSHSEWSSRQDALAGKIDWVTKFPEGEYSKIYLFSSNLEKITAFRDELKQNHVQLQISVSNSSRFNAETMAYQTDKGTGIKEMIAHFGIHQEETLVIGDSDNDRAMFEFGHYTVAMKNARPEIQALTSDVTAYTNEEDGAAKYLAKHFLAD

For `Cc1cc(=O)oc2c(F)c(OP(=O)(O)O)c(F)cc12` [DiFMUP], the “EnzChek phosphatase assay, DiFMU release” value is listed as “enzymatic activity of this protein was investigated using a simple phosphatase assay kit with DiFMUP”.
